This note sets out measurements from patent US8030499B2, “1,3-dihydro-2H-indole-2-one compound and pyrrolidine-2-one compound fused with aromatic heterocycle” (Taisho Pharmaceutical Co., Ltd., priority 2005, dated 2011).

Structures are written as SMILES. Counter-ions that a name gives are not always drawn.

For this test, the target named is T1, human V1b receptor (Homo sapiens, UniProt P47901).
T1 construct: expressed in transfected cells; host or cells: CHO cells
T1 sequence (P47901 1-424): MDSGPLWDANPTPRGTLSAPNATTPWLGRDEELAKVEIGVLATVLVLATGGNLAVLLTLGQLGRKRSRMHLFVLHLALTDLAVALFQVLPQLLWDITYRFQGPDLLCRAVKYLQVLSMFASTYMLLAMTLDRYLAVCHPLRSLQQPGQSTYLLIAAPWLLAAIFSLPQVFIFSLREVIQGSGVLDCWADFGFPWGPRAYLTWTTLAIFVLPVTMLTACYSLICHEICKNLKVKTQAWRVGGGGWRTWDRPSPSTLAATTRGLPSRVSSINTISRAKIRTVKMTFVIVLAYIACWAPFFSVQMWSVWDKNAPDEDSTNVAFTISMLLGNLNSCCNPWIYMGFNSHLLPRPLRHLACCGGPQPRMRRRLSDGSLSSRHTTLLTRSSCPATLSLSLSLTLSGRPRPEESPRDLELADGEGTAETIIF
The test can be described thus: V1b receptor binding assay ([3H](Arg8)-vasopressin, crude membranes of CHO cells). As to conditions: 0.1 μmol/L test drug, V1b receptor binding assay; read-out: Rate of inhibition (V1b: % of inhibition). The protocol:
A summary of the methods is given below.
Each obtained homogenate was centrifuged for 20 minutes at 50,000×g and 4° C., the sediment was resuspended in a 50 mmol/L Tris hydrochloric acid buffer solution (pH7.4, containing 10 mmol/L magnesium chloride and 0.1% bovine serum albumin), which served as a crude membrane preparation. This crude membrane preparation was added with [^3H] (Arg^8) vasopressin (final concentration: 0.1 nmol/L to 0.4 nmol/L), and each test drug (final concentration: 0.1 nmol/L to lμmol/L or 0.01 nmol/L to 0.1 μmol/L) to 22° C. for 90 minutes. After the end of the reaction, the reaction solution was filtrated using a GF/C glass fiber filter, which had been presoaked in 0.3% polyethyleneimine for two hours. After the GF/C glass fiber filter was dried sufficiently, scintillator was added, and the radioactivity on the filter was measured using a liquid scintillation counter. Binding of [^3H] (Arg^8)-vasopressin in the presence of (Arg^8)-vasopressin, in the amounts of 0.1 μmol/L in the V1b receptor binding assay and 5 μmol/L in the V1a and V2 receptor binding assay, were taken as non-specific binding, and the value obtained by subtracting non-specific binding from the total binding in the absence (Arg^8)-vasopressin served as specific binding.
In addition, regarding the V1b receptor binding assay, the value obtained by, subtracting the amount of binding in the presence of 0.1 μmol/L test drug from the total amount of binding, divided by the amount of specific binding, served as the rate of inhibition (% of inhibition) of the test drug at the concentration tested.

Broadly, the inhibition is the relative decrease from the control value, in per cent.

With `COc1ccc(S(=O)(=O)N2C(=O)C(c3cc(CO)ccc3OC)(N3C[C@H](O)C[C@H]3C(=O)N(C)C)c3cc(Cl)ccc32)c(OC(F)(F)F)c1` (single isomer, unassigned) [Example 203], the inhibition at 0.1 µM stood at 87%.
Turning to `COc1ccc(S(=O)(=O)N2C(=O)C(c3cccc4c3OCC4)(N3CCCC[C@H]3C(=O)N(C)C)c3cc(Cl)ccc32)c(OC(F)(F)F)c1` (stereo partly drawn) [Example 90, (2S)-1-(5-chloro-3-(2,3-dihydro-1-benzofuran-7-yl)-1-{[4-methoxy-2-(trifluoromethoxy)phenyl]sulfonyl}-2-oxo-2,3-dihydro-1H-indol-3-yl)-N,N-dimethylpiperidine-2-carboxamide], the inhibition at 0.1 µM came to 97%.
For the molecule `COc1ccc(S(=O)(=O)N2C(=O)C(CC(=O)N3CCN(c4ccncc4)CC3)(c3ccccc3OC)c3cc(Cl)ccc32)c(OC(F)(F)F)c1` (stereo not shown) [Example 43, 5-chloro-3-(2-methoxyphenyl)-1-{[4-methoxy-2-(trifluoromethoxy)phenyl]sulfonyl}-3-[2-oxo-2-(4-pyridin-4-ylpiperazin-1-yl)ethyl]-1,3-dihydro-2H-indol-2-one hydrochloride 1.5 hydrate], the inhibition at 0.1 µM amounted to 92%.
On to `COc1ccc(S(=O)(=O)N2C(=O)C(c3cc(C)ccc3OC)(N3C[C@H](OCC#N)C[C@H]3C(=O)N(C)C)c3cc(Cl)ccc32)c(OC(F)(F)F)c1` (single isomer, unassigned) [Example 146], for which the inhibition at 0.1 µM came out at 94%.
With `COc1ccc(S(=O)(=O)N2C(=O)C(c3cc(C)ccc3OC)(N3CCN(c4ccncc4)CC3C(=O)N(C)C)c3cc(Cl)ccc32)c(OC(F)(F)F)c1` (stereo not shown) [Example 112, 1-(5-chloro-3-(2-methoxy-5-methylphenyl)-1-{[4-methoxy-2-(trifluoromethoxy)phenyl]sulfonyl}-2-oxo-2,3-dihydro-1H-indol-3-yl)-N,N-dimethyl-4-pyridin-4-yl piperazine-2-carboxamide], the inhibition at 0.1 µM is 55%.
Consider `COc1ccc(S(=O)(=O)N2C(=O)C(c3cc(OC)ccc3OC)(N3C[C@H](O)C[C@H]3C(=O)N(C)C)c3cc(Cl)ccc32)c(OC(F)(F)F)c1` (single isomer, unassigned) [Example 102], for which the inhibition at 0.1 µM was 102%.
To `COc1ccc(S(=O)(=O)N2C(=O)C(c3cc(C)ccc3OC)(N3C[C@H](OCC(=O)O)C[C@H]3C(=O)N(C)C)c3cc(Cl)ccc32)c(OC(F)(F)F)c1` (stereo partly drawn) [Example 148, ({(3R,5S)-1-(5-chloro-3-(2-methoxy-5-methylphenyl)-1-{[4-methoxy-2-(trifluoromethoxy)phenyl]sulfonyl}-2-oxo-2,3-dihydro-1H-indol-3-yl)-5-[(dimethylamino)carbonyl]pyrrolidin-3-yl}oxy)acetic acid] belongs 85%; to `COc1ccc(S(=O)(=O)N2C(=O)C(NCC(=O)N3CCN(c4ccncc4)CC3)(c3ccccc3OC)c3cc(Cl)ccc32)c(OC(F)(F)F)c1` (stereo not shown) [Example 58, 5-chloro-3-(2-methoxyphenyl)-1-{[4-methoxy-2-(trifluoromethoxy)phenyl]sulfonyl}-3-{[2-oxo-2-(4-pyridin-4-ylpiperazin-1-yl)ethyl]amino}-1,3-dihydro-2H-indol-2-one], 77%; to `COC(=O)[C@@H]1C[C@@H](O)CN1C1(c2ccccc2OC)C(=O)N(S(=O)(=O)c2ccc(OC)cc2OC(F)(F)F)c2ccc(Cl)cc21` (single isomer, unassigned) [Example 4], 102%.
To `COc1ccc(S(=O)(=O)N2C(=O)C(c3cc(CN4CCCC4)ccc3OC)(N3C[C@H](O)C[C@H]3C(=O)N(C)C)c3cc(Cl)ccc32)c(OC(F)(F)F)c1` (single isomer, unassigned) [Example 199] belongs 98%; to `COc1ccc(S(=O)(=O)N2C(=O)C(c3cc(C)ccc3OC)(N3C[C@H](OCCC(N)=O)C[C@H]3C(=O)N(C)C)c3cc(Cl)ccc32)c(OC(F)(F)F)c1` (stereo partly drawn) [Example 144, (4R)-4-(3-amino-3-oxopropoxy)-1-(5-chloro-3-(2-methoxy-5-methylphenyl)-1-{[4-methoxy-2-(trifluoromethoxy)phenyl]sulfonyl}-2-oxo-2,3-dihydro-1H-indol-3-yl)-N,N-dimethyl-L-prolinamide], 95%.
Turning to `COc1ccc(S(=O)(=O)N2C(=O)C(c3cc(C)ccc3OC)(N3C[C@H](O)C[C@H]3C(=O)N(C)C)c3cc(Cl)cnc32)c(OC(F)(F)F)c1` (single isomer, unassigned) [Example 118], the inhibition at 0.1 µM turned out to be 67%.
Regarding `COc1ccc(S(=O)(=O)N2C(=O)C(c3cc(CC#N)ccc3OC)(N3C[C@H](O)C[C@H]3C(=O)N(C)C)c3cc(Cl)ccc32)c(OC(F)(F)F)c1` (single isomer, unassigned) [Example 236], the inhibition at 0.1 µM turned out to be 93%.
For the molecule `COc1ccc(S(=O)(=O)N2C(=O)C(c3cccc4c3OCO4)(N3C[C@H](O)C[C@H]3C(=O)N(C)C)c3cc(C)ccc32)c(OC(F)(F)F)c1` (single isomer, unassigned) [Example 107], the inhibition at 0.1 µM was determined as 102%.
To `COc1ccc(S(=O)(=O)N2C(=O)C(c3cccc4c3OCO4)(N3C[C@H](O)C[C@H]3C(=O)N(C)C)c3cc(Br)ccc32)c(OC(F)(F)F)c1` (single isomer, unassigned) [Example 92] belongs 102%; to `COc1ccc(S(=O)(=O)N2C(=O)C(c3cccc4c3OCC4)(N3C[C@H](O)C[C@H]3C(=O)N(C)C)c3cc(Cl)ccc32)c(OC(F)(F)F)c1` (single isomer, unassigned) [Example 89], 104%; to `COc1ccc(S(=O)(=O)N2C(=O)C(c3cc(C)cnc3OC)(N3C[C@H](O)C[C@H]3C(=O)N(C)C)c3cc(Cl)ccc32)c(OCC(F)(F)F)c1` (single isomer, unassigned) [Example 169], 93%.
`COc1ccc(S(=O)(=O)N2C(=O)C(c3ccccc3OC)(N3C[C@H](F)C[C@H]3C(=O)N(C)C)c3cc(Cl)ccc32)c(OC(F)(F)F)c1` (single isomer, unassigned) [Example 7]: the inhibition at 0.1 µM amounted to 96%.
To `COc1ccc(S(=O)(=O)N2C(=O)C(c3cc(C)ccc3OC)(N3C[C@H](OCC(O)CO)C[C@H]3C(=O)N(C)C)c3cc(Cl)ccc32)c(OC(F)(F)F)c1` (stereo partly drawn) [Example 150, (4R)-1-(5-chloro-3-(2-methoxy-5-methylphenyl)-1-{[4-methoxy-2-(trifluoromethoxy)phenyl]sulfonyl}-2-oxo-2,3-dihydro-1H-indol-3-yl)-4-(2,3-dihydroxypropoxy)-N,N-dimethyl-L-prolinamide] belongs 89%; to `COc1ccc(S(=O)(=O)N2C(=O)C(N[C@@H](Cc3ccncc3)C(=O)N(C)C)(c3ccccc3OC)c3cc(Cl)ccc32)c(OC(F)(F)F)c1` (single isomer, unassigned) [Example 83], 72%; to `COc1ccc(S(=O)(=O)N2C(=O)C(c3ccccc3OC)(N3c4ccccc4C[C@H]3C(=O)N(C)C)c3cc(Cl)ccc32)c(OC(F)(F)F)c1` (stereo partly drawn) [Example 40, (2S)-5′-chloro-3′-(2-methoxyphenyl)-1′-{[4-methoxy-2-(trifluoromethoxy)phenyl]sulfonyl}-N,N-dimethyl-2′-oxo-2,2′,3,3′-tetrahydro-1′H-1,3′-biindole-2-carboxamide], 66%.
To `COc1ccc(S(=O)(=O)N2C(=O)C(c3cc(C#N)ccc3OC)(N3C[C@H](O)C[C@H]3C(=O)N(C)C)c3cc(Cl)ccc32)c(OC(F)(F)F)c1` (single isomer, unassigned) [Example 238] belongs 89%.
In the case of `COC(=O)[C@@H]1C[C@@H](O)CN1C1(c2cc(C)ccc2OC)C(=O)N(S(=O)(=O)c2ccc(OC)cc2OC(F)(F)F)c2ccc(Cl)cc21` (single isomer, unassigned) [Example 135] it was 92%.
With `CNCc1ccc(OC)c(C2(N3C[C@H](O)C[C@H]3C(=O)N(C)C)C(=O)N(S(=O)(=O)c3ccc(OC)cc3OC(F)(F)F)c3ccc(Cl)cc32)c1` (stereo partly drawn) [Example 206, (4R)-1-(5-chloro-3-{2-methoxy-5-[(methylamino)methyl]phenyl}-1-{[4-methoxy-2-(trifluoromethoxy)phenyl]sulfonyl}-2-oxo-2,3-dihydro-1H-indol-3-yl)-4-hydroxy-N,N-dimethyl-L-prolinamide], the inhibition at 0.1 µM amounted to 105%.
Regarding `COc1ccc(S(=O)(=O)N2C(=O)C(c3cc(OC)ccc3OC)(N3CCCC[C@H]3C(=O)N(C)C)c3cc(Cl)ccc32)c(OC(F)(F)F)c1` (single isomer, unassigned) [Example 117], the inhibition at 0.1 µM came out at 95%.
